Measured values from ChEMBL document CHEMBL3751770, “Identification of benzothiophene amides as potent inhibitors of human nicotinamide phosphoribosyltransferase” (Bioorg Med Chem Lett, 2016).

How the values were obtained:
[1] = Cytotoxicity against human HCT116 cells after 72 hrs by MTT assay; assay type: functional, cell-based; settings: HCT-116, 72 h
HepG2 [2] = assay: Cytotoxicity against human HepG2 cells after 72 hrs by MTT assay; assay type: functional, cell-based; settings: HepG2, 72 h
MDA-MB-231 = assay: Cytotoxicity against human MDA-MB-231 cells after 72 hrs by MTT assay; assay type: functional, cell-based; settings: MDA-MB-231, 72 h
[3] = molecular target: Nicotinamide phosphoribosyltransferase (Homo sapiens, UniProt P43490); assay: Inhibition of human Nampt using NAM as substrate after 15 mins by fluorometric method
HepG2 [4] = assay: Induction of apoptosis in human HepG2 cells assessed as necrotic cells level at 5 uM after 48 hrs using annexin VFITC/propidium iodide staining by flow cytometry (reference value: 4.09%); assay type: functional
HepG2 [5] = assay: Induction of apoptosis in human HepG2 cells assessed as early apoptotic cells level at 5 uM after 48 hrs using annexin VFITC/propidium iodide staining by flow cytometry (reference value: 2.84%); assay type: functional
HepG2 [6] = assay: Induction of apoptosis in human HepG2 cells assessed as late apoptotic cells level at 5 uM after 48 hrs using annexin VFITC/propidium iodide staining by flow cytometry (reference value: 2.85%); assay type: functional

Chain of Nicotinamide phosphoribosyltransferase (P43490 whole entry): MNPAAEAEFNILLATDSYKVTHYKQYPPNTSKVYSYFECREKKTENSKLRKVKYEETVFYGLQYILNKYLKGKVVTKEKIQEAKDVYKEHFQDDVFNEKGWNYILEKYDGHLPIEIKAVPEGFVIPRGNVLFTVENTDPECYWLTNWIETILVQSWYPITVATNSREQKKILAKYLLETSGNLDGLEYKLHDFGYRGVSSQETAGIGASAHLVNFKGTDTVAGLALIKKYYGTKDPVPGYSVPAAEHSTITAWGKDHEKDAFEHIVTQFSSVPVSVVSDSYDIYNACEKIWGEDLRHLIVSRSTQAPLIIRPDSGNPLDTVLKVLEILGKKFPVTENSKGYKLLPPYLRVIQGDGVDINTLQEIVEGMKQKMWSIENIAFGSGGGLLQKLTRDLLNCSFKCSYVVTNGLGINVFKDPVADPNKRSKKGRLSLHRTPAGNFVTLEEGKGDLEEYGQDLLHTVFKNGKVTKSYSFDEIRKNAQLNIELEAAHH

Row | Structure (SMILES) | IC50 [3] | IC50 [1] | IC50 (HepG2 [2]) | IC50 (MDA-MB-231) | Activity (HepG2 [4]) | Activity (HepG2 [5]) | Activity (HepG2 [6])
1 | O=C(NCCCn1ccnc1)c1ccc([N+](=O)[O-])s1 | > 10 µM | > 390 µM | 60 µM | > 390 µM |  |  | 
2 | COc1ccc(CCNC(=O)c2ccc([N+](=O)[O-])s2)cc1OC | > 10 µM | 86 µM | 80 µM | > 328 µM |  |  | 
3 | O=C(/C=C/c1cccnc1)NCCCn1ccnc1 | > 10 µM | > 276 µM | > 276 µM | > 276 µM |  |  | 
4 | COc1ccc(CCNC(=O)CNC(=O)c2sccc2C)cc1OC | > 10 µM | 196 µM | 47 µM | > 328 µM |  |  | 
5 | COc1ccc(CCNC(=O)c2cc3ccccc3s2)cc1OC |  | 281 µM | 82 µM | > 293 µM |  |  | 
6 | COc1ccc(CCNC(=O)/C=C/c2cccnc2)cc1OC | > 10 µM | > 401 µM | > 401 µM | > 401 µM |  |  | 

Continued, in another order:

Row | IC50 [3] | Structure (SMILES) | IC50 [1] | IC50 (HepG2 [2]) | IC50 (MDA-MB-231) | Activity (HepG2 [4]) | Activity (HepG2 [5]) | Activity (HepG2 [6])
7 | 0.86 µM | COc1ccc(CCNC(=O)c2ccc(C)s2)cc1OC | > 307 µM | > 307 µM | > 307 µM |  |  | 
8 | > 10 µM | Cc1ccsc1C(=O)NCCCn1ccnc1 | 198 µM | 102 µM | > 276 µM |  |  | 
9 | 1.1 µM | O=C(NCCCn1ccnc1)c1cc2ccccc2s1 | 25 µM | 5.2 µM | 36 µM | 6.75% | 1.88% | 24.42%
10 | 5.3 µM | COc1ccc(CCNC(=O)c2sccc2C)cc1OC | 169 µM | 99 µM | 191 µM |  |  | 
11 | 0.95 µM | COc1ccc(CCNC(=O)CNC(=O)c2ccc(C)s2)cc1OC | > 401 µM | > 401 µM | > 401 µM |  |  | 
12 | 1.4 µM | COc1ccc(CCNC(=O)c2cc3ccccc3o2)cc1OC | 159 µM | 137 µM | > 371 µM |  |  | 
13 | 1 µM | O=C(NCCCn1ccnc1)c1cc2ccccc2o1 | 61 µM | 11 µM | 10 µM |  |  | 
14 | 0.17 µM | Cc1ccc(C(=O)NCCCn2ccnc2)s1 | > 320 µM | 3.9 µM | > 320 µM | 6.62% | 1.03% | 47.51%
